Calls of active or inactive are those of the source.
Assays:
Assay type in all cases: functional
Triticum aestivum [1] = experiment: Inhibition of intact Triticum aestivum (wheat) seed germination assessed as appearance of sprouts at 500 ppm after 4 days relative to wheat grains RL4137 germination
Triticum aestivum [2] = experiment: Inhibition of intact Triticum aestivum (wheat) seed germination assessed as appearance of distinct rootlets at 500 ppm after 4 days relative to wheat grains RL4137 germination
Triticum aestivum [3] = experiment: Growth inhibition of intact Triticum aestivum (wheat) seed assessed as appearance of sprouts at 500 ppm after 4 days relative to wheat grains RL4137 germination
Triticum aestivum [4] = experiment: Growth inhibition of intact Triticum aestivum (wheat) seed assessed as appearance of distinct rootlets at 500 ppm after 4 days relative to wheat grains RL4137 germination

C[C@H](O)c1ccccc1
active: inhibition (Triticum aestivum [1]) | inhibition (Triticum aestivum [2]) | growth inhibition (GI) (Triticum aestivum [3]) | growth inhibition (GI) (Triticum aestivum [4])

C[C@@H](O)c1ccccc1
active: inhibition (Triticum aestivum [1]) | inhibition (Triticum aestivum [2]) | growth inhibition (GI) (Triticum aestivum [3]) | growth inhibition (GI) (Triticum aestivum [4])

CC1(C)CCCC2(C)OC(=O)C=C12 (racemic)
active: inhibition (Triticum aestivum [1]) | inhibition (Triticum aestivum [2]) | growth inhibition (GI) (Triticum aestivum [3]) | growth inhibition (GI) (Triticum aestivum [4])

CC1(C)CCC[C@@]2(C)OC(=O)C=C12
active: inhibition (Triticum aestivum [1]) | inhibition (Triticum aestivum [2]) | growth inhibition (GI) (Triticum aestivum [3]) | growth inhibition (GI) (Triticum aestivum [4])

CC1(C)CCC[C@]2(C)OC(=O)C=C12
active: inhibition (Triticum aestivum [1]) | inhibition (Triticum aestivum [2]) | growth inhibition (GI) (Triticum aestivum [3]) | growth inhibition (GI) (Triticum aestivum [4])

CC(O)c1ccccc1 (racemic)
active: inhibition (Triticum aestivum [1]) | inhibition (Triticum aestivum [2]) | growth inhibition (GI) (Triticum aestivum [3]) | growth inhibition (GI) (Triticum aestivum [4])

— ChEMBL document CHEMBL3046930, “Germination and growth inhibitors from wheat (Triticum aestivum L.) husks” (2002)
